One may read the EC50 as the concentration at which the effect is half-maximal.

The record followed here is patent publication US7906655B2, “Hepatitis C virus inhibitors” (Bristol-Myers Squibb Company, priority 2008, dated 2011).

The first experiment relates to HCV 1b genotype. The experiment in a line: HCV Replicon assay (HCV-neo replicon cells, wild-type). Format: cell-based. The note with it: HCV 1b genotype replicon; class symbols. As for the experimental part:
An HCV Replicon assay was utilized in the present disclosure, and was prepared, conducted and validated as described in commonly owned PCT/US2006/022197 and in O'Boyle et. al. Antimicrob Agents Chemother. 2005 April; 49 (4):1346-53. Assay methods incorporating luciferase reporters have also been used as described (Apath.com).
HCV-neo replicon cells and replicon cells containing mutations in the NS5A region were used to test the currently described family of compounds. The compounds were determined to have more than 10-fold less inhibitory activity on cells containing mutations than wild-type cells. Thus, the compounds of the present disclosure can be effective in inhibiting the function of the HCV NS5A protein and are understood to be as effective in combinations as previously described in application PCT/US2006/022197 and commonly owned WO/O4014852. Further, the compounds of the present disclosure can be effective against the HCV 1b genotype. It should also be understood that the compounds of the present disclosure can inhibit multiple genotypes of HCV. […] In one embodiment, compounds of the present disclosure are inhibitory versus 1a, 1b, 2a, 2b, 3a, 4a, and 5a genotypes.
In general terms: In antiviral work, replicon cells carry a viral genome segment that copies itself.
With `O=C(Cc1ccccn1)N1CCC[C@H]1c1nc2ccc(C#Cc3ccc4[nH]c([C@@H]5CCCN5C(=O)[C@H]5CCCO5)nc4c3)cc2[nH]1` [Example M48, 5-((2-((2S)-1-(2-pyridinylacetyl)-2-pyrrolidinyl)-1H-benzimidazol-6-yl)ethynyl)-2-((2S)-1-((2R)-tetrahydro-2-furanylcarbonyl)-2-pyrrolidinyl)-1H-benzimidazole], the EC50 was under 4.57 nM.

For `C[C@@H](c1nc2cc(C#Cc3ccc4[nH]c([C@H](C)N(C)C(=O)Cc5ccccc5)nc4c3)ccc2[nH]1)N(C)C(=O)Cc1ccccc1` [Example M32], the EC50 was under 4.57 nM.

Staying with this experiment, now noted: Hepatitis C virus, HCV 1b genotype replicon; class symbols.
With `O=C([C@@H](O)c1ccccc1)N1CCC[C@H]1c1nc2cc(-c3ccc(-c4ccc5[nH]c([C@@H]6CCCN6C(=O)[C@@H](O)c6ccccc6)nc5c4)o3)ccc2[nH]1` [JG3, (1S,1′S)-2,2′-(2,5-furandiylbis(1H-benzimidazole-5,2-diyl(2S)-2,1-pyrrolidinediyl))bis(2-oxo-1-phenylethanol)], the EC50 was in the range of 4.57 to 99 nM.

Turning to `O=C(c1cccs1)N1CCC[C@H]1c1nc2cc(C#Cc3ccc4nc([C@@H]5CCCN5C(=O)[C@H]5CCCO5)[nH]c4c3)ccc2[nH]1` [Example M54.4, 5-((2-((2S)-1-((2R)-tetrahydro-2-furanylcarbonyl)-2-pyrrolidinyl)-1H-benzimidazol-6-yl)ethynyl)-2-((2S)-1-(2-thienylcarbonyl)-2-pyrrolidinyl)-1H-benzimidazole], the 50% effective concentration (EC50) is under 4.57 nM.

On to `CN1CCN(C(C(=O)N2CCC[C@H]2c2nc3cc(-c4cnc(-c5cccc6[nH]c([C@@H]7CCCN7C(=O)C(c7ccccc7)N7CCN(C)CC7)nc56)o4)ccc3[nH]2)c2ccccc2)CC1` (stereo partly drawn) [Example J14.1, 2-((2S)-1-((4-methyl-1-piperazinyl) (phenyl)acetyl)-2-pyrrolidinyl)-4-(5-(2-((2S)-1-((4-methyl-1-piperazinyl) (phenyl)acetyl)-2-pyrrolidinyl)-1H-benzimidazol-5-yl)-1,3-oxazol-2-yl)-1H-benzimidazole], for which the 50% effective concentration (EC50) fell in the range of 4.57 to 99 nM.

In the case of `O=C(C(c1ccccc1)N1CCC(O)CC1)N1CCC[C@H]1c1nc2cc(-c3cnc(-c4cccc5[nH]c([C@@H]6CCCN6C(=O)C(c6ccccc6)N6CCC(O)CC6)nc45)o3)ccc2[nH]1` (stereo partly drawn) [Example J13, 1-(2-((2S)-2-(4-(5-(2-((2S)-1-((4-hydroxy-1-piperidinyl) (phenyl)acetyl)-2-pyrrolidinyl)-1H-benzimidazol-5-yl)-1,3-oxazol-2-yl)-1H-benzimidazol-2-yl)-1-pyrrolidinyl)-2-oxo-1-phenylethyl)-4-piperidinol], the EC50 is under 4.57 nM.

Turning to `COC(=O)N[C@H](C(=O)N1CCC[C@H]1c1nc2cc(C#CC#Cc3ccc4[nH]c([C@@H]5CCCN5C(=O)[C@@H](NC(=O)OC)C(C)C)nc4c3)ccc2[nH]1)C(C)C` [Example M57.1, Methyl((1S)-1-(((2S)-2-(5-(4-(2-((2S)-1-((2S)-2-((methoxycarbonyl)amino)-3-methylbutanoyl)-2-pyrrolidinyl)-1H-benzimidazol-5-yl)-1,3-butadiyn-1-yl)-1H-benzimidazol-2-yl)-1-pyrrolidinyl)carbonyl)-2-methylpropyl)carbamate], the EC50 was under 4.57 nM.

`COc1cccc2c(C(=O)N3CCC[C@H]3c3nc4cc(-c5cnc(-c6ccc7nc([C@@H]8CCCN8C(=O)c8nc(Cl)cc9c(OC)cccc89)[nH]c7c6)o5)ccc4[nH]3)nc(Cl)cc12` [Example J22, 3-chloro-1-(((2S)-2-(5-(2-(2-((2S)-1-((3-chloro-5-methoxy-1-isoquinolinyl)carbonyl)-2-pyrrolidinyl)-1H-benzimidazol-6-yl)-1,3-oxazol-5-yl)-1H-benzimidazol-2-yl)-1-pyrrolidinyl)carbonyl)-5-methoxy-isoquinoline]: the EC50 was in the range of 1000 to 10000 nM.

In the case of `CN(C)[C@@H](C(=O)N1CCC[C@H]1c1nc2cc(C#Cc3ccc4nc([C@@H]5CCCN5C(=O)[C@@H](c5ccccc5)N(C)C)[nH]c4c3)ccc2[nH]1)c1ccccc1` [Example M19, (1R)-2-((2S)-2-(5-((2-((2S)-1-((2R)-2-(dimethylamino)-2-phenylacetyl)-2-pyrrolidinyl)-1H-benzimidazol-6-yl)ethynyl)-1H-benzimidazol-2-yl)-1-pyrrolidinyl)-N,N-dimethyl-2-oxo-1-phenylethanamine], the EC50 is under 4.57 nM.

For the compound `CC(C)(C)O[C@@H]1C[C@@H](c2nc3cc(CCc4ccc5nc([C@@H]6C[C@@H](OC(C)(C)C)CN6C(=O)OCc6ccccc6)[nH]c5c4)ccc3[nH]2)N(C(=O)OCc2ccccc2)C1` [OL5, benzyl (2S,4R)-2-(5-(2-(2-((2S,4R)-1-((benzyloxy)carbonyl)-4-tert-butoxy-2-pyrrolidinyl)-1H-benzimidazol-6-yl)ethyl)-1H-benzimidazol-2-yl)-4-tert-butoxy-1-pyrrolidinecarboxylate], the EC50 lay within 100 to 999 nM.

Turning to `CCO[C@@H]1C[C@@H](c2nc3cc(CCc4ccc5nc([C@@H]6C[C@@H](OCC)CN6C(=O)OCc6ccccc6)[nH]c5c4)ccc3[nH]2)N(C(=O)OCc2ccccc2)C1` [Example F5, benzyl (2S,4R)-2-(5-(2-(2-((2S,4R)-1-((benzyloxy)carbonyl)-4-ethoxy-2-pyrrolidinyl)-1H-benzimidazol-6-yl)ethyl)-1H-benzimidazol-2-yl)-4-ethoxy-1-pyrrolidinecarboxylate], the half-maximal effective concentration (EC50) was in the range of 4.57 to 99 nM.

As for `CC(=O)N1CCC[C@H]1c1nc2c(-c3ncc(-c4ccc5[nH]c([C@@H]6CCCN6C(=O)[C@@H](c6ccccc6)N(C)C)nc5c4)o3)cccc2[nH]1` [Example J27, (1R)-2-((2S)-2-(5-(2-(2-((2S)-1-acetyl-2-pyrrolidinyl)-1H-benzimidazol-4-yl)-1,3-oxazol-5-yl)-1H-benzimidazol-2-yl)-1-pyrrolidinyl)-N,N-dimethyl-2-oxo-1-phenyl-ethanamine], the EC50 was under 4.57 nM.

Regarding `COC(=O)N[C@H](C(=O)N1CCCC[C@H]1c1nc2ccc(-c3ccc(-c4ccc5nc([C@@H]6CCCCN6C(=O)[C@@H](NC(=O)OC)C(C)C)[nH]c5c4)cc3)cc2[nH]1)C(C)C` [Example M46.3, Methyl((1S)-1-(((2S)-2-(5-(4-(2-((2S)-1-((2S)-2-((methoxycarbonyl)amino)-3-methylbutanoyl)-2-piperidinyl)-1H-benzimidazol-5-yl)phenyl)-1H-benzimidazol-2-yl)-1-piperidinyl)carbonyl)-2-methylpropyl)carbamate], the half-maximal effective concentration (EC50) was under 4.57 nM.

For `O=C([C@H](O)c1ccccc1)N1CCC[C@H]1c1nc2cc(-c3cnc(-c4cccc5[nH]c([C@@H]6CCCN6C(=O)[C@H](O)c6ccccc6)nc45)o3)ccc2[nH]1` [Example J9, (1R)-2-((2S)-2-(4-(5-(2-((2S)-1-((2R)-2-hydroxy-2-phenylacetyl)-2-pyrrolidinyl)-1H-benzimidazol-5-yl)-1,3-oxazol-2-yl)-1H-benzimidazol-2-yl)-1-pyrrolidinyl)-2-oxo-1-phenylethanol], the EC50 was in the range of 4.57 to 99 nM.

Staying with this experiment, now noted: Hepatitis C virus, HCV 1b genotype replicon; numeric values.
Turning to `CC(C)(C)OC(=O)N1CCN(C(=O)OCc2ccccc2)C(c2nc3cc(CCc4ccc5nc(C6CN(C(=O)OC(C)(C)C)CCN6C(=O)OCc6ccccc6)[nH]c5c4)ccc3[nH]2)C1` (stereo not drawn) [OL8, 1-benzyl 4-tert-butyl 2-(5-(2-(2-(1-((benzyloxy)carbonyl)-4-(tert-butoxycarbonyl)-2-piperazinyl)-1H-benzimidazol-6-yl)ethyl)-1H-benzimidazol-2-yl)-1,4-piperazinedicarboxylate], the EC50 is 2880 nM.
